According to patent US10427133B2, “Absorbent article comprising cyclodextrin complexes” (The Procter & Gamble Company, priority 2016, dated 2019):

Experiment: Thiol Vapor Pressure Suppression (TVPS) index measurement, zNose fast GC headspace
Conditions: 5 μl compound, 100 μl 1% v/v butanethiol in ethanol, 37° C. for 4 hours
Description: (§1) Thiol Vapor Pressure Suppression (TVPS) index is a measure of the reduction in butanethiol concentration in the headspace by a compound, as measured using a fast GC instrument, the zNose 7100 (Electronic Sensor Technologies, Newbury Park, Calif.).
as §1, with “Calif.) based on an Surface Acoustic Wave (SAW) Quartz microbalance detector, or equivalent.” for “Calif.).”
Before any measurements the instrument is calibrated according to manufacturer's instructions under the same experimental settings. The instrument has a DB-5 column (also available from Electronic Sensor Technologies, Newbury Park, Calif.) 1 m in length, 0.25 μm phase thickness, and 0.25 mm in diameter.
For analysis, the zNose is programmed with the Sensor Temperature, Inlet Temperature, Valve Temperature, and Initial Column Temperature all set to 40° C. The oven is temperature gradient is programmed at a rate of 10° C./s from 40° C. to a final temperature of 200° C.
TVPS of a compound is measured in the following way: 100 μl±1 μl of a 1% v/v butanethiol (99%, purity, available from Sigma-Aldrich, St. Louis, Mo.) solution in ethanol (200 proof) is added into a 1 ml vial (8×40 mm). These vials are borosilcate glass straight walled vial. In another 1 ml vial (8×40 mm), 5 μl±0.2 μl of the compound is added. Both open vials are then placed inside a 20 mL headspace vial (22×75 mm), and the vial is immediately sealed using a screw thread closure with PTFE/Silicone septa. The vial is heated to 37° C. for 4 hours. After 4 hours, the vial is removed from the oven and let to equilibrate at 25° C.±2° C. for 15 minutes. The headspace inside the vial is sampled using the zNose is sampled for 10 s and analyzed following the experimental protocol outlined above. Samples with butanethiol alone, and the volatile active alone, are run using the same protocol to identify the peaks for both materials. An acceptable retention index for butanethiol is 720±30. If the peaks butanethiol peak and the volatile material peak co-elute, one skilled in the art can modify the protocol settings to separate those peaks to achieve a minimum resolution of 1.5. For example one can change the column temperature ramp rate. In between samples, the instrument needs to be cleaned to remove any trace materials. To clean the instrument, the instrument is run without samples as needed until no peaks greater than 100 counts are observed.
The amount of butanethiol in the headspace is measured from the area of the peak on the chromatograph for butanethiol (ABtSH,Rx). To calculate the percentage of butanethiol reduction in the headspace, a control with the butanethiol solution without the volatile material is run in the same manner and the area is measured as well (ABtSH,C). TVPS is then measured as the percentage reduction in butanethiol area calculated using the following formula: […]

First: Cc1ccc(C=O)s1 [5-methyl-2-thiophene-carboxaldehyde]
Second: CC(C)c1cccc(C(C)CC=O)c1 (centres unmarked) [Florhydral]
The “TVPS (percentage reduction in butanethiol headspace peak area)” value of the first is higher: 67.4 for the first, 53.3 for the second.

Going from `C=CC(C)CCC=C(C)CCC=O` (centres unmarked) [Floral Super] to `CC(C)=CCCC(C)C=O` (centres unmarked) [melonal], the “TVPS (percentage reduction in butanethiol headspace peak area)” value falls from 52.4 to 20.4.

Compared with `CCCCCCC(C=O)=Cc1ccccc1` [Hexylcinnamic aldehyde], `CC(C)=CCCC(C)CCCC(C)C=O` (centres unmarked) [adoxal] is higher in “TVPS (percentage reduction in butanethiol headspace peak area)” value: 8.0 for the first, 24.4 for the second.

Going from `CC1=CC(C)C(C=O)CC1` (centres unmarked) [ligustral] to `CC(C)=CCC/C(C)=C\C=O` [neral], the “TVPS (percentage reduction in butanethiol headspace peak area)” value falls from 42.5 to 17.1.

With `CCC/C=C/C=O` [trans-2-hexenal] the “TVPS (percentage reduction in butanethiol headspace peak area)” value was 27.1.

Experiment: Fragrance (OCOC) release from cyclodextrin complexes on feminine hygiene pad, SPME-GC/MS headspace
Assay type: physicochemical
Conditions: 1.00 mL water, headspace at 5, 10, 30 min, FIG. 2
Description: The results are shown in the graph of FIG. 2. After dosing with water the headspace was sampled using Solid Phase Micro-Extraction (a suitable fiber assembly is a 2 cm Stableflex 24 Ga, 50/30 μm DVB/CAR/PDMS available from Supelco, Pa. or equivalent) followed by gas chromatography/mass spectrometry (a suitable unit is the 5777A Mass Selective Detector (MSD) also available from Agilent, or equivalent) with a GERSTEL Multipurpose Sampler (Gerstel, Liticumo, Md. or equivalent) to quantify the OCOC release.
The model OCOC used is a neat mixture of benzaldehyde (1.6 g, 15.08 mmols), ligustral (1.6 g, 11.58 mmols), citral (1.6 g, 10.51 mmols), cinnamic aldehyde (1.6 g, 12.11 mmols), and florhydral (1.6 g, 8.41 mmols). All components are available from Sigma Aldrich, or equivalent. The mixture is homogenized before use.
The Standard Pad Substrates are prepared by cutting a 10 cm lateral strip across the whole product centered at the longitudinal center of an Always Ultra normal size pad.
A mixture of the model OCOC for each β-cyclodextrin type was solubilized in water at a one-to-one molar ratio (β-cyclodextrin/OCOC). The amount of water used for the complexation was adjusted for each β-cyclodextrin type according to its individual water solubility to ensure complete dissolution of the β-cyclodextrin complex. Each mixture of β-cyclodextrin and OCOC in water was thoroughly homogenized. […]

With `COC[C@H]1O[C@@H]2O[C@H]3[C@H](O)[C@@H](OC)[C@@H](O[C@H]4[C@H](O)[C@@H](OC)[C@@H](O[C@H]5[C@H](O)[C@@H](OC)[C@@H](O[C@H]6[C@H](O)[C@@H](OC)[C@@H](O[C@H]7[C@H](O)[C@@H](OC)[C@@H](O[C@H]8[C@H](O)[C@@H](OC)[C@@H](O[C@H]1[C@H](O)[C@H]2OC)O[C@@H]8COC)O[C@@H]7COC)O[C@@H]6COC)O[C@@H]5COC)O[C@@H]4COC)O[C@@H]3COC` [2,6-dimethyl-β-cyclodextrin, 2,6-Di-O-methyl-β-cyclodextrin] the “Percent release of fragrance versus conventional β-cyclodextrin complex” value was “much higher percent release of fragrance than does conventional β-cyclodextrin”.

With `COC[C@H]1O[C@@H]2O[C@H]3[C@H](O)[C@@H](OC)[C@@H](O[C@H]4[C@H](O)[C@@H](OC)[C@@H](O[C@H]5[C@H](O)[C@@H](OC)[C@@H](O[C@H]6[C@H](O)[C@@H](OC)[C@@H](O[C@H]7[C@H](O)[C@@H](OC)[C@@H](O[C@H]8[C@H](O)[C@@H](OC)[C@@H](O[C@H]1[C@H](O)[C@H]2OC)O[C@@H]8COC)O[C@@H]7COC)O[C@@H]6COC)O[C@@H]5COC)O[C@@H]4COC)O[C@@H]3COC` [2,6-dimethyl-β-cyclodextrin, 2,6-Di-O-methyl-β-cyclodextrin] the “Release of fragrance versus 2,3,6-trimethyl-β-cyclodextrin complex” value was “much higher release of fragrance than does 2, 3, 6-trimethyl-β-cyclodextrin”.
